Experimental findings from US20190263796A1, “LIM KINASE INHIBITORS, PHARMACEUTICAL COMPOSITION AND METHOD OF USE IN LIMK-MEDIATED DISEASES” (CELLIPSE, priority 2016, published 2019) are described below.

For test [1], the system named is Phospho-Ser3-Cofilin/Total Cofilin. Description: Western blot cofilin phosphorylation, MOLM-14. The note with it: MOLM-14 cells, 2 h. In kind it is cell-based. Here is the method:
(§1) MOLM-14 cell line was originally purchased from the American Type Culture Collection (ATCC). MOLM-14 cells are cultured in MEM alpha 10% (v/v) FBS supplemented with 100 U/mL^−1 penicillin, 0.1 mg·mL^−1 streptomycin (PAN Biotech P06-07100). Cells were maintained at 37° C. with 5% CO2.
(§2) In a 6 wells plate (Falcon 353046), 2·10^6 cells in 1.5 mL medium are treated for 2 h with compounds. Cells are then collected and cell lysis is performed at 4° C. using RIPA buffer supplemented with protease inhibitors cocktail (Sigma-Aldrich P8340) and phosphatase inhibitors cocktail (Sigma-Aldrich P5726). Following centrifugation 30 min 15000 g 4° C., supernatants are mixed with Laemmli buffer and denaturation is performed by heating 5 min 95° C. 10 μL of samples are subjected to electrophoresis on 15% SDS-PAGE. After electro-transfer (Mini Transblot, Bio-Rad), the PVDF membrane (Merck-Millipore Immobilon P IPVH00010) is blocked with Tris Buffered Saline, pH 7.4 (TBS) with 0.1% Tween 20 and 5% BSA for 1 h RT under agitation. The membrane was rinsed 3 times 10 min at room temperature under agitation with TBS, 0.1% Tween-20 (TBST) and then 1 h at room temperature with anti-phospho-Ser3-cofilin (Cell Signaling Technology #3313, 1/1000 dilution) antibody or anti-cofilin (Cell Signaling Technology #3312, 1/1000 dilution) diluted in TBS, 0.1% Tween 20 and 1% BSA. The membrane is then rinsed 3 times 10 min at room temperature under agitation in TBST and incubated for 1 h with anti-rabbit secondary antibody, horseradish peroxidase conjugated (Jackson Immunoresearch #711-036-152) under agitation at room temperature. After three washes 10 min at room temperature in TBST, the detection of total or phosphorylated cofilin was performed using chemiluminescence kit ECL™ Plus (GE Healthcare RPN2132). For each concentration of compound, ratio between phosphorylated cofilin and total cofilin is determined. This ratio is then expressed as percentage of control ratio (i.e., ratio from DMSO treated cells). IC50 Phospho-Ser3-Cofilin/Total Cofilin is then determined.

Test [2] relates to P-MEK/Total MEK. The test is described as follows: Western blot MEK1 phosphorylation, MV4-11. In kind it is cell-based. The note with it: for IC50: read-out: IC50 P-MEK/Total MEK; for Selectivity ratio: IC50 P-MEK/Total MEK divided by IC50 Phospho-Ser3-Cofilin/Total Cofilin. On the procedure:
(§3) MV4-11 cell line was originally purchased from the American Type Culture Collection (ATCC) or from the Leibniz-Institut Deutsche Sammlung von Mikroorganismen und Zellkulturen GmbH (DSMZ). MV4-11 cells are cultured in RPMI 1640 20% (v/v) FBS supplemented with 100 U/mL^−1 penicillin, 0.1 mg·mL^−1 streptomycin (PAN Biotech P06-07100) and 2 mM Glutamine (Sigma-Aldrich 59202C). Cells were maintained at 37° C. with 5% CO2.
(§4) In a 6 wells plate (Falcon 353046), 2·10^6 cells in 1.5 mL medium are treated for 2 h with compounds. Cells are then collected and cell lysis is performed at 4° C. using RIPA buffer supplemented with protease inhibitors cocktail (Sigma-Aldrich P8340) and phosphatase inhibitors cocktail (Sigma-Aldrich P5726). Following centrifugation 30 min 15000 g 4° C., supernatants are mixed with Laemmli buffer and denaturation is performed by heating 5 min 95° C. 10 μL of samples are subjected to electrophoresis on 15% SDS-PAGE. After electro-transfer (Mini Transblot, Bio-Rad), the PVDF membrane (Merck-Millipore Immobilon P IPVH00010) is blocked with Tris Buffered Saline, pH 7.4 (TBS) with 0.1% Tween 20 and 5% BSA for 1 h at room temperature under agitation. The membrane was rinsed 3 times 10 min at room temperature under agitation with TBS, 0.1% Tween-20 (TBST) and then 1 h at room temperature with anti-phospho-Ser218/222-MEK1 (Merck-Millipore 07-461, 1/1000 dilution) antibody or anti-MEK1 (Merck-Millipore 07-641, 1/1000 dilution) diluted in TBS, 0.1% Tween 20 and 1% BSA. The membrane is then rinsed 3 times 10 min RT under agitation in TBST and incubated for 1 h with anti-rabbit secondary antibody, horseradish peroxidase conjugated (Jackson Immunoresearch #711-036-152) under agitation at room temperature. After three washes 10 min at room temperature in TBST, the detection of total or phosphorylated cofilin was performed using chemiluminescence kit ECL™ Plus (GE Healthcare RPN2132). For each concentration of compound, ratio between phosphorylated cofilin and total cofilin is determined. This ratio is then expressed as percentage of control ratio (i.e., ratio from DMSO treated cells). IC50 P-MEK/Total MEK is then determined.
(§5) Selectivity ratios are calculated by dividing the IC50 P-MEK/Total MEK value (μM) by the IC50 Phospho-Ser3-Cofilin/Total Cofilin value (μM).
On the technique in general: In western blotting, separated proteins are transferred to a membrane and probed.

For test [3], the system named is P-MEK/Total MEK. The test is described as follows: Western blot MEK1 phosphorylation, MOLM-14. In kind it is cell-based. To be noted: for IC50: 2 h; for Selectivity ratio: IC50 P-MEK/Total MEK divided by IC50 Phospho-Ser3-Cofilin/Total Cofilin. Here is the method: as §1, §4, §5
The target of test [4] is B-Raf(h) (Homo sapiens, UniProt P15056). Description: B-Raf kinase assay (Eurofins Panlabs, radiometric). In kind it is biochemical. Further details: purchased Eurofins Panlabs Inc. (contract assay service). On the procedure: IC50 B-Raf is then determined.
Selectivity ratios are calculated by dividing the IC50 B-Raf (nM) by the IC50 LIMK1 (nM).

Test [5] has as its target LIMK1(h) (Homo sapiens, UniProt P53667). The test is described as follows: LIMK1 kinase assay (Eurofins Panlabs, radiometric). Details: purchased Eurofins Panlabs Inc. (contract assay service). In kind it is biochemical.
Procedure: Compounds were tested in a LIMK1 assay performed by Eurofins Panlabs Inc. LIMK1 (h) is incubated with 8 mM MOPS pH 7.0, 0.2 mM EDTA, 0.6 mg/mL cofilin, 10 mM Magnesium acetate and [gamma-33P]-ATP. The reaction is initiated by the addition of the Mg/ATP mix. After incubation for 40 min at room temperature, the reaction is stopped by the addition of phosphoric acid to a concentration of 0.5%. […] IC50 LIMK1 is then determined.
For test [6], the system named is Phospho-Ser3-Cofilin/Total Cofilin. Description: Western blot cofilin phosphorylation, MV4-11 (II.6). In kind it is cell-based. The note with it: MV4-11 cells. On the procedure: as §3, §2
Test [7] concerns P-MEK/Total MEK. The test is described as follows: Western blot MEK1 phosphorylation, K-562. In kind it is cell-based. The note with it: for IC50: Homo sapiens, read-out: IC50 P-MEK/Total MEK; for Selectivity ratio: IC50 P-MEK/Total MEK divided by IC50 Phospho-Ser3-Cofilin/Total Cofilin. Here is the method: (§6) K-562 cell line was originally purchased from the Leibniz-Institut Deutsche Sammlung von Mikroorganismen und Zellkulturen GmbH (DSMZ). K-562 cells are cultured in RPMI 1640 10% (v/v) FBS supplemented with 100 U/mL^−1 penicillin, 0.1 mg·mL^−1 streptomycin (PAN Biotech P06-07100). Cells were maintained at 37° C. with 5% CO2.
as §4, §5

For test [8], the system named is Phospho-Ser3-Cofilin/Total Cofilin. Description: Western blot cofilin phosphorylation, K-562. In kind it is cell-based. The note with it: Homo sapiens; K562 cells; 2 h. Here is the method: as §6, §2
Setting [9] is: 120 μM ATP, Table 8, read-out: IC50 B-Raf.
Setting [10] is: IC50 B-Raf (nM) divided by IC50 LIMK1 (nM), Table 8.

Where two headings read alike, the source gives them in different places.

Sequence of LIMK1(h) (P53667 whole entry): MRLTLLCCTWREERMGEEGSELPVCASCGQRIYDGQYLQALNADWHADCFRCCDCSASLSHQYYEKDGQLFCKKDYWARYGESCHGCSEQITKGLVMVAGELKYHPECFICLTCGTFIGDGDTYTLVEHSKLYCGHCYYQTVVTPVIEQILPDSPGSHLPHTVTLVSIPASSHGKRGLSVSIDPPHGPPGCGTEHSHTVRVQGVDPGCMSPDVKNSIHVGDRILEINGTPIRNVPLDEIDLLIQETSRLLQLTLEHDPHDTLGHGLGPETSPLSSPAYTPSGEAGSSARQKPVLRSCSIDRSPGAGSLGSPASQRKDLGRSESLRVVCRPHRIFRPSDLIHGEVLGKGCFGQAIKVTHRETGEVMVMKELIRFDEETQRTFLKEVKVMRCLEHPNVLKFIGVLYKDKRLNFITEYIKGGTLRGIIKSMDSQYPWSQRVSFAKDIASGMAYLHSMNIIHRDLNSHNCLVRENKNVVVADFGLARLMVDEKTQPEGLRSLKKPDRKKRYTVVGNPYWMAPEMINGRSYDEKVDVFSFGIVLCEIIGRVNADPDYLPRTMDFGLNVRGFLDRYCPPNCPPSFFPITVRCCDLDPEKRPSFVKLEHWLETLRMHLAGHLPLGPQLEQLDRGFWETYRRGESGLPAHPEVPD
Sequence of B-Raf(h) (P15056 whole entry): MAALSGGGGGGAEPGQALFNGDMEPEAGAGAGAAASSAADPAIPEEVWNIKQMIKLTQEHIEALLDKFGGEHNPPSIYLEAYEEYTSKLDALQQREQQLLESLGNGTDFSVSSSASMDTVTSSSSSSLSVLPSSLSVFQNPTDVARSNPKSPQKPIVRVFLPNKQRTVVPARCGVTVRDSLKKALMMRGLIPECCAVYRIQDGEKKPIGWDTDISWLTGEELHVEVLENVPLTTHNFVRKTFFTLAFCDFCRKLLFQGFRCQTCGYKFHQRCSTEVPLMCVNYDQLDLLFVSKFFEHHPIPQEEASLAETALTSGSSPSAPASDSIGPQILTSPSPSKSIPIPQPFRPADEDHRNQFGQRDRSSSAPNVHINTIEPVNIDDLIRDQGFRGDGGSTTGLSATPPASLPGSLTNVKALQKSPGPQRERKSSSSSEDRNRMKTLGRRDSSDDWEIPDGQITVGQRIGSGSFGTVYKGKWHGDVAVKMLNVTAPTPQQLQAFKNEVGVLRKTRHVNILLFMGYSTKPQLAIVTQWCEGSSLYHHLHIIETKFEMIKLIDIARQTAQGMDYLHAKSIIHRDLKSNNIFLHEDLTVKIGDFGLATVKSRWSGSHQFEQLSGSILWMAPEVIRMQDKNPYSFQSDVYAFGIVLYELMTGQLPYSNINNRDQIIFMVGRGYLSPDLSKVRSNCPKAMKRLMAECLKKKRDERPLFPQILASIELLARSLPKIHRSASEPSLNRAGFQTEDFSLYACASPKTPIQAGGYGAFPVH

Regarding `O=S(=O)(Nc1cccc(-c2nc(CCO)sc2-c2ccnc(Nc3ccccc3)n2)c1F)c1c(F)cccc1F` [8 (Na)], the IC50 was < 200 nM in test [1]; > 1000 nM in test [2] (MV4-11 cells, 2 h); > 1000 nM in test [3] (MOLM-14 cells, read-out: IC50 P-MEK/Total MEK); 10 to 100 nM in test [4] (setting [9]); < 10 nM in test [5] (15 μM ATP, Table 8, read-out: IC50 LIMK1); < 200 nM in test [6] (2 h). The results for the Selectivity ratio in test [2] (MV4-11 cells), in test [3] (MOLM-14 cells) and in test [4] (setting [10]) were 6, 30 and 9, respectively.

In the case of `O=S(=O)(Nc1cccc(-c2nc(CCO)sc2-c2ccnc(Nc3ccccc3)n2)c1F)c1c(F)cccc1F` [Compound 8, 2,6-difluoro-N-(2-fluoro-3-(2-(2-hydroxyethyl)-5-(2-(phenylamino)pyrimidin-4-yl)thiazol-4-yl)phenyl)benzenesulfonamide], the IC50 in test [1] (Homo sapiens) was < 200 nM; in test [7] (K562 cells, 2 h) it was 200 to 1000 nM; in test [2] (Homo sapiens, MV4-11 cells, 2 h), > 1000 nM; in test [3] (Homo sapiens, MOLM-14 cells, read-out: IC50 P-MEK/Total MEK), > 1000 nM; in test [8] it was < 200 nM; in test [5] (15 μM ATP, Table 2, read-out: IC50 LIMK1) it was < 10 nM. Further, the IC50 in test [6] (Homo sapiens, MV4-11, 2 h) was in the range of 200 to 1000 nM. For the same compound, the results for the Selectivity ratio in test [7] (K562 cells), in test [2] (MV4-11 cells) and in test [3] (MOLM-14 cells) were 20, 4 and 100, respectively.

Consider `CNC(=O)Cc1nc(-c2cccc(NS(=O)(=O)c3c(F)cccc3F)c2F)c(-c2ccnc(Nc3ccccc3)n2)s1` [Compound 9, 2-(4-(3-(2,6-difluorophenylsulfonamido)-2-fluorophenyl)-5-(2-(phenylamino)pyrimidin-4-yl)thiazol-2-yl)-N-methylacetamide], for which the IC50 was < 200 nM in test [1] (Homo sapiens); > 1000 nM in test [7] (K562, 2 h); > 1000 nM in test [2] (Homo sapiens, MV4-11, 2 h); > 1000 nM in test [3] (read-out: IC50 P-MEK/Total MEK, MOLM-14 cells); < 200 nM in test [8]; 10 to 100 nM in test [4] (setting [9]). In test [6] (Homo sapiens, 2 h), this compound displayed an IC50 of 200 to 1000 nM.

For `CC(C)(C)c1nc(-c2cccc(NS(=O)(=O)c3c(F)cccc3F)c2F)c(-c2ccnc(Nc3ccccc3)n2)s1` [Compound 1, N-(3-(2-(tert-butyl)-5-(2-(phenylamino)pyrimidin-4-yl)thiazol-4-yl)-2-fluorophenyl)-2,6-difluorobenzenesulfonamide], the IC50 is < 200 nM in test [1] (Homo sapiens); > 1000 nM in test [7] (K562, 2 h); > 1000 nM in test [2] (Homo sapiens, MV4-11, 2 h); > 1000 nM in test [3] (Homo sapiens, MOLM-14, 2 h, read-out: IC50 P-MEK/Total MEK, MOLM-14 cells); 200 to 1000 nM in test [8]; 10 to 100 nM in test [4] (IC50 B-Raf, 120 μM ATP, Table 8). Besides, the IC50 in test [4] (IC50 B-Raf, Table 5) was 500 to 5000 nM; in test [5], 10 to 100 nM; in test [5] (read-out: IC50 LIMK1, Table 5, value reported in part II.1) it was 10 to 100 nM; in test [6] (Homo sapiens, 2 h), < 200 nM. In addition, the Selectivity ratio in test [7] (K562 cells) worked out at 8; in test [2] (MV4-11 cells), 125; in test [3] (MOLM-14 cells) it was 40; in test [4] (setting [10]), 8. Moreover, the “selectivity ratio for LIMK1 over B-Raf” value in test [4] (IC50 B-Raf (nM) divided by IC50 LIMK1 (nM)) was “about 20”.
